Laboratory results reported in publication PMC11771213, “Molecular Docking Studies and In Vitro Activity of Pancreatic Lipase Inhibitors from Yak Milk Cheese” (International Journal of Molecular Sciences, 2025).
No end group written: not given here.

What was measured:
[1] = biological target: T1, porcine pancreatic lipase (PL) (Sus scrofa, UniProt P00591); assay: In vitro PL inhibition assay (p-nitrophenylbutyrate substrate); format: biochemical; conditions: triplicate; for IC50: porcine PL 1 mg/mL in 100 mM Tris HCl, pre-incubation 37 °C 30 min, 5 mM p-nitrophenylbutyrate, absorbance 450 nm, from fitted inhibition curve; for PL inhibition rate: range over concentrations of 0.2–1.0 mg/mL, 37 °C, 30 min pre-incubation
T1 construct: purchased Jiangsu Jingmei Bio technology (Yancheng, China)
T1 sequence (P00591 1-450): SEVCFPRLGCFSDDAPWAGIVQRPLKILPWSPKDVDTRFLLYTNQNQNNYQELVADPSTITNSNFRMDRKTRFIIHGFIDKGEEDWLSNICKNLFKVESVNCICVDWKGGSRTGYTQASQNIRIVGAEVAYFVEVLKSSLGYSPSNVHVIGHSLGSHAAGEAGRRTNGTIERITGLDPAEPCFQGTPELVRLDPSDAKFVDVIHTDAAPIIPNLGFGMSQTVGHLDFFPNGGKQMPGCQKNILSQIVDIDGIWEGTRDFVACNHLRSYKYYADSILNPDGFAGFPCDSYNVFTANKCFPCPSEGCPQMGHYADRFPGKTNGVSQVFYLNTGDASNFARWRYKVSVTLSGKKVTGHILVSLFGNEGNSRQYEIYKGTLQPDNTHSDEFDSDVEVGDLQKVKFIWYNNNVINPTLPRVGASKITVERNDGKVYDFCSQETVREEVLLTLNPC
Description: (§1) This experiment, based on the method of Glisan et al. and with slight modifications to the experimental method, determined the effects of peptides RK7 and KQ7 on porcine pancreatic lipase (PL). Firstly, dissolve p-nitrophenylbutyrate (5 mM) in a sodium acetate solution (5 mM, containing 1% Triton X-100). Dissolve porcine pancreatic lipase (PL) (1 mg/mL) in 100 mM Tris HCl buffer. Incubate with different concentrations of porcine pancreatic lipase (PL) and peptides in 96-well plates (37 °C) for 30 min. Then, mix with 5 mM p-nitrophenylbutyrate solution to initiate the enzyme reaction. The labeled pig pancreatic lipase antibody binds to form an antibody–antigen enzyme-labeled antibody complex. The substrate is converted to blue by enzyme catalysis and ultimately to yellow by acid action. The intensity of color is positively correlated with the presence of porcine pancreatic lipase (PL) in the sample. The enzyme-linked immunosorbent assay (ELISA) was used to measure the absorbance (OD value) at a wavelength of 450 nm, and the activity concentration of porcine pancreatic lipase (PL) in the sample was calculated using a standard curve.(1) PL inhibition rate/%=1−A−B/C−D × 100 where A is the absorbance value of the sample; B is the absorbance value of the sample blank; C is the absorbance value of the control group; and D is the absorbance value of the control blank group.
All measured data in the experiment were determined independently and measured in triplicate. All data were processed using SPSS Statistics 26.0. Data plots were generated using Origin 8.5 and GraphPad Prism 8.0.2.

[2] = biological target: T1, porcine pancreatic lipase (PL); assay: PL inhibitory activity after simulated gastrointestinal digestion (pepsin, then trypsin); format: biochemical; conditions: pepsin pH 2, then trypsin pH 7.5, enzyme–substrate 1:50 w/w, 37 °C
Description: as §1, with “group. […]” for “group.”

Row | IC50 [1] [µM] | PL inhibition rate [1] | PL inhibition rate after simulated gastrointestinal digestion (range over digestion) ([2]; 120-minute digestion, sampled every 30 min) | PL inhibition rate at 120 min of simulated gastrointestinal digestion ([2]; 120 min time point) [%] | Compound
1 | 886 | 29.27–67.09% |  |  | CC(C)c1c(C(=O)Nc2ccccc2)c(-c2ccccc2)c(-c2ccc(F)cc2)n1CC[C@@H](O)C[C@@H](O)CC(=O)O [atorvastatin, reference compound]
2 | 788 | 19.74–62.32% | 44.34–62.35% |  | RPKHPIK [RK7, Arg-Pro-Lys-His-Pro-Ile-Lys]
3 | 760 |  |  | 61.31 | KVLPVPQ [KQ7, Lys-Val-Leu-Pro-Val-Pro-Gln]
